Measurements as given in patent publication EP0861891A1, “Compounds for modulating cell negative regulations and biological applications thereof” (INSTITUT NATIONAL DE LA SANTE ET DE LA RECHERCHE MEDICALE …, priority 1996, dated 1998).
Where a SMILES comes first, the peptide text is derived from it.

Target: T1, GST-SHP-1.SH2(C) (Mus musculus, UniProt P29351)
T1 construct: recombinant fusion proteins corresponding to the isolated N- and C-SH2 domains of SHP-1; made in house; host or cells: E. coli DH5α
T1 sequence (P29351 110-213 limits assumed): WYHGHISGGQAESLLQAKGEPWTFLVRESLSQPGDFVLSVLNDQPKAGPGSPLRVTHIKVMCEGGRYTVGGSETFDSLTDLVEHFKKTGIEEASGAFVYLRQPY
Assay: Surface plasmon resonance, binding of phosphorylated KIR ITIM peptides to SHP-1 C-SH2 domain
Design: species or system murine
Conditions: calculated from koff/kon
Description: Fusion proteins and surface plasmon resonance analysis. Surface plasmon resonance (SPR) measurements were performed on a BIAcore™ (Pharmacia). The GST-SHP-1.SH2(NC), GST-SHP-1.SH2(N), GST-SHP-1.SH2(C), GST-SHIP.SH2 fusion proteins generated from the murine phosphatase cDNA, were purified from DH5α lysates. Briefly, overnight culture at 37°C in LB medium containing 50 µg/ml ampicillin was diluted 1/10 in fresh medium, and incubated until the absorbance at 600 nm reaches 1-2. At that point, IPTG was added (1mM), and incubation continued for an additional 4 hours at 37°C. […] Protein purity was assessed by 12.5 % SDS-PAGE, and Coomassie blue staining. […] Then, biotinylated peptides were injected, and their binding to streptavidine-coated microchips was assessed using anti-phosphotyrosine 4G10 mAb (UBI).
The measurement of phosphorylated p58.2 peptide binding to GST-SHP-1.SH2(N) and GST-SHP-1.SH2(C) fusion proteins was at a constant 5 µl/min flow rate. […] Results are expressed as corrected resonance units (CRU) corresponding to the raw RU values subtracted from background RU value due to the injection medium. In this representative experiment, 130 RU of p58.2.1 peptide and 160 RU of p58.2.2 peptide were immobilized on microchips. koff and kon were calculated from three independent measurements using the BIAevaluation 2.0 software. Kd was calculated from koff/kon.

CC[C@H](C)[C@H](NC(=O)[C@H](CC(=O)O)NC(=O)[C@@H](NC(=O)[C@@H]1CCCN1C(=O)[C@@H]1CCCN1C(=O)[C@@H](NC(=O)[C@H](CCCCN)NC(=O)[C@@H]1CCCN1C(=O)[C@H](CCCNC(=N)N)NC(=O)[C@H](CCC(N)=O)NC(=O)[C@H](CO)NC(=O)[C@@H]1CCCN1C(=O)[C@H](CCCNC(=N)N)NC(=O)CCCC[C@@H]1SC[C@@H]2NC(=O)N[C@@H]21)[C@@H](C)O)[C@@H](C)O)C(=O)N[C@H](C(=O)N[C@H](C(=O)N[C@@H](Cc1ccc(OP(=O)(O)O)cc1)C(=O)N[C@H](C(=O)N[C@@H](CCC(=O)O)C(=O)N[C@@H](CC(C)C)C(=O)N1CCC[C@H]1C(=O)N[C@@H](CC(N)=O)C(=O)N[C@@H](C)C(=O)N[C@@H](CCC(=O)O)C(=O)N1CCC[C@H]1C(=O)O)[C@@H](C)O)C(C)C)[C@@H](C)CC [p58.2.2, RPSQRPKTPPTDIIVY333TELPNAEP] (HELM PEPTIDE1{[O=C1N[C@H]2[C@H](CS[C@H]2CCCCC(=O)[*:2])N1].R.P.S.Q.R.P.K.T.P.P.T.D.I.I.V.[O=C([C@H](Cc1ccc(OP(=O)(O)O)cc1)N[*:1])[*:2]].T.E.L.P.N.A.E.P}$$$$V2.0)
Kd: 0.545 µM
